Results on 6 molecules are retold here after patent publication US9623123B2, “Fluorescent conjugated polymers with a bodipy-based backbone and uses thereof” (Michigan Technological University, priority 2008, dated 2017).

Data set [1] is described as follows: Fluorescence lifetime measurement. Type of data set: physicochemical. On the procedure: (§1) ^1H NMR and ^13C NMR spectra were taken on a 400 MHz Varian Unity Inova spectrophotometer instrument. ^1H and ^13C NMR spectra were recorded in CDCl3, and chemical shifts (5) are given in ppm relative to solvent peaks (at 7.24 ppm for ^1H spectra and at 77.3 for ^13C spectra) as internal standard. UV spectra were taken on a Hewlett-Packard 8452A Diode Array UV-visible spectrophotometer. Fluorescence spectra were recorded on a Spex Fluorolog 1681 0.22 m steady-state fluorometer. Fluorescence quantum yields of BODIPY dyes and polymers were measured in methylene chloride and calculated by using fluorescein excited at 490 nm in 0.1 N NaOH as the reference (its quantum efficiency of 85%). Fluorescence lifetimes were measured on a GL-3300 Nitrogen Laser laserstrobe PTI instrument and analyzed using FeliX32 software.
^1H NMR and ^13C NMR spectra were taken on a 400 MHz Varian Unity Inova spectrophotometer instrument. ^1H and ^13C NMR spectra were recorded in CDCl3, and chemical shifts (δ) are given in ppm relative to solvent peaks (^1H, δ 7.26; ^13C, δ 77.3) as internal standard. UV spectra were taken on a Hewlett-Packard 8452A Diode Array UV-visible spectrophotometer. Fluorescence spectra were recorded on a Spex Fluorolog 1681 0.22 m steady-state fluorometer. Fluorescence quantum yields of BODIPY dyes and polymers were measured in methylene chloride and calculated by using fluorescein exCIted at 490 nm in 0.1 N NaOH as the reference (quantum effiCIency, cPn=85%). Fluorescence lifetimes were measured on a 010-3300 Nitrogen Laser laserstrobe PTI instrument and analyzed using FeliX32 software. Molecular weights of the polymers were determined by gel permeation chromatography (OPC) by using a Waters AssoCIates model 6000A liquid chromatograph. Three American Polymer Standards Corp. ultrastyragel columns in series with porosity indices of 103, 104, and 105 A were used and housed in an oven thermostatted at 30° C. The mobile phase was HPLC grade THF which was filtered and degassed by vacuum filtration through a 0.5, urn fluoropore filter prior to use. The polymers were detected by a Waters Model 440 ultraviolet absorbance detector at a wavelength of 254 nm and a Waters Model 2410 refractive index detector. Molecular weights were determined relative to polystyrene standards.

Data set [2] can be described thus: UV-visible absorption and fluorescence spectra, fluorescence quantum yields in solution. Type of data set: physicochemical. To be noted: for Quantum yield: methylene chloride solution, fluorescein standard (Table 10, Example 14). On the procedure:
^1H NMR and ^13C NMR spectra were taken on a 400 MHz Varian Unity Inova spectrophotometer instrument. ^1H and ^13C NMR spectra were recorded in CDCl3, chemical shifts (δ) are given in ppm relative to solvent peaks (1H: δ 7.26; 13C: δ 77.3) as internal standard. UV spectra were taken on a Hewlett Packard 8452A Diode Array UV-visible spectrophotometer. Fluorescence spectra were recorded on a Spex Fluorolog 1681 0.22 m steady-state fluorometer. Fluorescence quantum yields of BODIPY dyes and polymers were measured in methylene chloride and DMF, and calculated by using fluorescein excited at 490 nm in 0.1 N NaOH as the reference absolute quantum efficiency (φn=85%). Molecular weights of the polymers were determined by gel permeation chromatography (“GPC”) by using a Waters Associates Model 6000A liquid chromatograph. Three American Polymer Standards Corp. Ultrastyragel columns in series with porosity indices of 10^3, 10^4, and 10^5 Å were used and housed in an oven thermostated at 30° C. Mobile phase was HPLC grade THF which was filtered and degassed by vacuum filtration through a 0.5 μm fluoropore filter prior to use. The polymers were detected by a Waters Model 440 ultraviolet absorbance detector at a wavelength of 254 nm and a Waters Model 2410 refractive index detector. Molecular weights were measured relative to polystyrene standards. An Enraf Nonius CAD-4 X-Ray diffractometer was used in the crystal structure determination. The windows program WinGX was used as the interface for the solution and refinement of the model. The data were first reduced and corrected for absorption using the psi-scans, and then solved using the program SIR2004. The model was refined using SHELXL97.
as §1
^1H NMR and ^13C NMR spectra were taken on a 400 MHz Varian Unity Inova spectrophotometer instrument. ^1H and ^13C NMR spectra were recorded in CDCl3, chemical shifts (δ) are given in ppm relative to solvent peaks (^1H: δ 7.26; ^13C: δ 77.3) as internal standard. UV spectra were taken on a Hewlett Packard 8452A Diode Array UV-visible spectrophotometer. Fluorescence spectra were recorded on a Spex Fluorolog 1681 0.22 m steady-state fluorometer. Fluorescence quantum yields of BODIPY dyes and polymers were measured in methylene chloride and DMF, and calculated by using fluorescein excited at 490 nm in 0.1 N NaOH as the reference quantum efficiency (φn=85%).^30,31 Molecular weights of the polymers were determined by gel permeation chromatography (GPC) by using a Waters Associates Model 6000A liquid chromatograph. Three American Polymer Standards Corp. Ultrastyragel columns in series with porosity indices of 10^3, 10^4, and 10^5 Å were used and housed in an oven thermostated at 30° C. Mobile phase was HPLC grade THF which was filtered and degassed by vacuum filtration through a 0.5 μm fluoropore filter prior to use. The polymers were detected by a Waters Model 440 ultraviolet absorbance detector at a wavelength of 254 nm and a Waters Model 2410 refractive index detector. Molecular weights were measured relative to polystyrene standards. […]

The mark [3] stands for this setting: methylene chloride solution (Table 9, Example 13).
Setting [4] is: methylene chloride solution (Table 10, Example 14).

In data set [1] (setting [3]), `CCCCCCCCCCCCOc1ccc(C2=C3C(C)=C(C#C[Si](C)(C)C)C(C)=[N+]3[B-](F)(F)n3c(C)c(C#C[Si](C)(C)C)c(C)c32)cc1` [Compound 5a] displayed a Fluorescence lifetime of 4.4 ns. For the same molecule, the Fluorescence lifetime in data set [1] (setting [4]) is recorded as 4.5 ns. In data set [2] (setting [3]), the Absorption maxima is 554 nm, the Emission maxima is 569 nm and the Stokes shift was determined as 15 nm. In data set [2] (setting [4]), this molecule gave an Absorption maxima of 553 nm and an Emission maxima of 569 nm. Further, the Quantum yield in data set [2] was found to be 71%.

With `CCCCCCCCCCCCOc1ccc(C2=C3C(C)=C(C#C[Si](C)(C)C)C(C)=[N+]3[B-](F)(F)n3c(C)c(C#C[Si](C)(C)C)c(C)c32)cc1OCCCCCCCCCCCC` [Compound 5b], in data set [1] (setting [3]), the Fluorescence lifetime is reported as 4.6 ns. In data set [1] (setting [4]), this molecule gave a Fluorescence lifetime of 5.2 ns. Further, in data set [2] (setting [3]), the Absorption maxima was 555 nm and the Stokes shift is 15 nm. In addition, in data set [2] (setting [4]), the Absorption maxima came out at 554 nm and the Emission maxima was determined as 570 nm. Further, in data set [2], the Quantum yield was 79%.

Molecule `CCCCCCCCCCCCOc1cc(C2=C3C(C)=C(C#C[Si](C)(C)C)C(C)=[N+]3[B-](F)(F)n3c(C)c(C#C[Si](C)(C)C)c(C)c32)cc(OCCCCCCCCCCCC)c1OCCCCCCCCCCCC` [Compound 5c] returned a Fluorescence lifetime in data set [1] (setting [3]) of 4.4 ns. For the same molecule, in data set [2] (setting [3]), the Absorption maxima turned out to be 556 nm, the Emission maxima was 570 nm and the Stokes shift stood at 14 nm.

Turning to `C#CC1=C(C)C2=C(c3ccc(OCCCCCCCCCCCC)cc3)c3c(C)c(C#C)c(C)n3[B-](F)(F)[N+]2=C1C` [Compound 6a], the Fluorescence lifetime in data set [1] (setting [3]) was 3.6 ns; in data set [1] (setting [4]), 4.2 ns. For the same molecule, the Absorption maxima is 539 nm in data set [2] (setting [3]) and 538 nm in data set [2] (setting [4]). Besides, the Emission maxima in data set [2] (setting [3]) came to 551 nm; in data set [2] (setting [4]) it was 552 nm. Further, in data set [2] (setting [3]), the Stokes shift is recorded as 12 nm. The same molecule returned a Quantum yield in data set [2] of 63%.

`C#CC1=C(C)C2=C(c3ccc(OCCCCCCCCCCCC)c(OCCCCCCCCCCCC)c3)c3c(C)c(C#C)c(C)n3[B-](F)(F)[N+]2=C1C` [Compound 6b] registered a Fluorescence lifetime in data set [1] (setting [3]) of 3.9 ns. The molecule also had a Fluorescence lifetime in data set [1] (setting [4]) of 5.9 ns. In addition, in data set [2] (setting [3]), the Absorption maxima is 540 nm, the Emission maxima is recorded as 5.52 nm and the Stokes shift was 12 nm. In data set [2] (setting [4]), this molecule registered an Absorption maxima of 539 nm and an Emission maxima of 553 nm. In data set [2], the Quantum yield is recorded as 67%.

`C#CC1=C(C)C2=C(c3cc(OCCCCCCCCCCCC)c(OCCCCCCCCCCCC)c(OCCCCCCCCCCCC)c3)c3c(C)c(C#C)c(C)n3[B-](F)(F)[N+]2=C1C` [Compound 6c]: the Fluorescence lifetime in data set [1] (setting [3]) came out at 3.0 ns. In addition, in data set [2] (setting [3]), the Absorption maxima worked out at 541 nm, the Emission maxima came to 553 nm and the Stokes shift is 12 nm.
